This note sets out measurements from PubChem BioAssay (NCI).

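All cell lines were grown in 96-well plates and treated with compound for 48 hours. At the TGI there is no net growth.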

Some test systems named below: U251 CNS; OVCAR-3 ovarian; BT-549 breast; MDA-N; DU-145 prostate; NCI-H460 lung; RXF 393 renal; COLO 205 colon; HCT-116 colon; 786-0 renal; M14 melanoma.
Common to all, as to experiment: growth of human tumour cells (NCI), 48 h

`CC(=O)O[C@H]1C[C@H]2[C@@H]([C@H](OC(C)=O)C[C@@H]3CC4(CC[C@@]32C)OOC2(CCCCC2)OO4)[C@@H]2CC[C@H]([C@H](C)CCC(=O)O)[C@@]12C`: the TGI is 17.7 µM with U251 CNS; 37.2 µM with OVCAR-3 ovarian; 17.3 µM in the assay on BT-549 breast; 26.9 µM in the assay on MDA-N; 31.6 µM with DU-145 prostate; 21.6 µM in the assay with NCI-H460 lung. For the same compound, the TGI in the assay on RXF 393 renal came out at 31.3 µM; with COLO 205 colon it was 14 µM; with HCT-116 colon, 19.2 µM; with 786-0 renal it was 24 µM; with M14 melanoma, 26.9 µM.

Regarding `N#C[C@H](C(=O)c1ccccc1F)c1nc2ccccc2[nH]1`, the TGI in the assay on U251 CNS, in the assay with OVCAR-3 ovarian, in the assay with BT-549 breast, in the assay on MDA-N, with DU-145 prostate and with NCI-H460 lung was greater than 100 µM in each case. The TGI with RXF 393 renal, in the assay with COLO 205 colon, in the assay on HCT-116 colon, in the assay on 786-0 renal and in the assay on M14 melanoma was greater than 100 µM throughout.

For the compound `CCCCC1Cc2cc(OC)ccc2-c2n1c1cc(OC)ccc1[n+]2C` (stereo unspecified) (tested in a mixture with another compound), the TGI with U251 CNS was greater than 26.5 µM; in the assay with OVCAR-3 ovarian, greater than 72.1 µM; with BT-549 breast it was 79 µM; with MDA-N, 11.1 µM; in the assay with DU-145 prostate, greater than 64.1 µM; with NCI-H460 lung it was 18.1 µM. In addition, the TGI in the assay on RXF 393 renal was 45.8 µM; in the assay with COLO 205 colon, 1.69 µM; in the assay on HCT-116 colon it was greater than 39.9 µM; in the assay on 786-0 renal, greater than 100 µM; in the assay on M14 melanoma, 25.7 µM.

With `O=S(=O)(O)c1ccc2c(N=Nc3c(O)ccc4ccccc34)cccc2c1`, the TGI with U251 CNS, in the assay on OVCAR-3 ovarian, in the assay on BT-549 breast, in the assay on MDA-N, in the assay on DU-145 prostate and in the assay with NCI-H460 lung was greater than 100 µM throughout. Further, the TGI in the assay on RXF 393 renal, in the assay with COLO 205 colon, in the assay on HCT-116 colon, with 786-0 renal and in the assay on M14 melanoma was greater than 100 µM each time.

For the compound `Cc1cc(/N=C/c2ccc(Cl)cc2)n(-c2ccccc2)n1`, the TGI with U251 CNS, in the assay on OVCAR-3 ovarian, with BT-549 breast, with MDA-N, with DU-145 prostate and in the assay on NCI-H460 lung was greater than 100 µM in each case. Moreover, the TGI is 77.1 µM in the assay on RXF 393 renal; greater than 100 µM in the assay with COLO 205 colon; greater than 100 µM with HCT-116 colon; greater than 100 µM with 786-0 renal; greater than 100 µM in the assay with M14 melanoma.

Take `Nc1nc2c(c(=O)[nH]1)NC(CCNc1ccc(C(=O)O)cc1)CN2` (stereo unspecified): the TGI with U251 CNS, in the assay with OVCAR-3 ovarian, in the assay on BT-549 breast, with MDA-N, in the assay with DU-145 prostate and in the assay with NCI-H460 lung was greater than 100 µM throughout. The TGI in the assay with RXF 393 renal, with COLO 205 colon, in the assay on HCT-116 colon, with 786-0 renal and with M14 melanoma was greater than 100 µM throughout.

On to `Cn1c(SCc2c[nH]c3ccccc23)nnc1-c1ccc(Cl)cc1Cl`, for which the TGI in the assay with U251 CNS was 38.1 µM; in the assay on OVCAR-3 ovarian, 35.1 µM; in the assay on BT-549 breast, 87.5 µM; with MDA-N it was 78.9 µM; in the assay on DU-145 prostate, 78.5 µM; in the assay on NCI-H460 lung it was 26.3 µM. For the same compound, the TGI is 32.5 µM with RXF 393 renal; 27.4 µM in the assay with COLO 205 colon; 93 µM with HCT-116 colon; 68.6 µM in the assay on 786-0 renal; 38.1 µM in the assay on M14 melanoma.

As for `C=C1C(=O)O[C@@H]2[C@H]1C[C@H](I)[C@@]1(C)CC[C@H](O1)[C@](C)(I)CCCC(C)[C@@H]2O` (stereo partly specified), the TGI came out at 20 µM in the assay on U251 CNS; 8.09 µM with OVCAR-3 ovarian; 20.9 µM in the assay on BT-549 breast; 9.57 µM with MDA-N; 13.6 µM in the assay on DU-145 prostate; 28.6 µM in the assay on NCI-H460 lung. Also, the TGI came out at 4.44 µM with RXF 393 renal; 4.95 µM in the assay on COLO 205 colon; 8.34 µM with HCT-116 colon; 2.84 µM in the assay on 786-0 renal; 19.4 µM in the assay on M14 melanoma.

As to `Cc1cc(NS(=O)(=O)c2ccc(NC(=O)c3ccc4nc5ccccc5c(Nc5ccc(S(=O)(=O)Nc6cc(C)on6)cc5)c4c3)cc2)no1`, the TGI with U251 CNS, in the assay on OVCAR-3 ovarian, in the assay on BT-549 breast, with MDA-N, in the assay on DU-145 prostate and in the assay on NCI-H460 lung was greater than 50 µM throughout. For the same compound, the TGI in the assay with RXF 393 renal, in the assay with COLO 205 colon, in the assay with HCT-116 colon, in the assay on 786-0 renal and in the assay with M14 melanoma was greater than 50 µM each time.

Consider `O=C(O)c1ccccc1CC(Cc1ccccc1)C(=O)O` (stereo unspecified), for which the TGI in the assay on U251 CNS, in the assay on OVCAR-3 ovarian, with BT-549 breast, in the assay with MDA-N, in the assay with DU-145 prostate and in the assay with NCI-H460 lung was greater than 100 µM in each case. Moreover, the TGI with RXF 393 renal, with COLO 205 colon, in the assay with HCT-116 colon, in the assay with 786-0 renal and in the assay with M14 melanoma was greater than 100 µM each time.

As for `CC(=O)Oc1ccc(/C=C/C(=O)NCCOC(=O)/C=C/c2ccc(OC(C)=O)c(OC(C)=O)c2)cc1OC(C)=O`, the TGI is greater than 100 µM in the assay with U251 CNS; 42 µM with OVCAR-3 ovarian; greater than 100 µM in the assay with BT-549 breast; greater than 100 µM in the assay on MDA-N; greater than 100 µM with DU-145 prostate; greater than 100 µM in the assay with NCI-H460 lung. Moreover, the TGI is 47.4 µM with RXF 393 renal; greater than 100 µM with COLO 205 colon; 39.2 µM in the assay with HCT-116 colon; 84.9 µM in the assay on 786-0 renal; 74.5 µM in the assay with M14 melanoma.
